From US20090124672A1 (priority 2007, published 2009) come the findings set out here.

For one assay, the target named is T1, hALDH2 (recombinant human mitochondria ALDH) (Homo sapiens, UniProt P05091).
T1 sequence (P05091 18-517): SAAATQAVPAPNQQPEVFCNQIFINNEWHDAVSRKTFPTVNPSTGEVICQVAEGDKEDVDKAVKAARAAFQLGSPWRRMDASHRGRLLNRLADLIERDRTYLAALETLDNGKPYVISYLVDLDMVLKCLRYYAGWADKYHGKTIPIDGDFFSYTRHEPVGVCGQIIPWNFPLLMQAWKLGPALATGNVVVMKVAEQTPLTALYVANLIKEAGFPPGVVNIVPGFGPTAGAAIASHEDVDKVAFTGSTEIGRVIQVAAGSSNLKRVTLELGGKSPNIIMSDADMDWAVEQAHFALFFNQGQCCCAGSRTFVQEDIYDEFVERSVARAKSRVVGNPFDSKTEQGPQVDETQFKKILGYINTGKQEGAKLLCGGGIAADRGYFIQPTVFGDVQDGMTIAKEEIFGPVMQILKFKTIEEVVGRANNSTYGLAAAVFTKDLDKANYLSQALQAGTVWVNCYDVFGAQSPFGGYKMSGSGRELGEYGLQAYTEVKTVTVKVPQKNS
Nature of the assay: ALDH2 inhibition assay (NADH formation, formaldehyde substrate).
Conditions: not given
It is filed as biochemical. The method, then: ALDH2 inhibition assays were performed in sodium phosphate buffer (50 mM, pH 7.4) containing 1.2 mM NAD^+ (Sigma N7004), 1 nM hALDH2 (recombinant human mitochondria ALDH), various concentrations of test compounds (from 0.03 nM to 1000 nM), and 0.15 mM freshly prepared formaldehyde solution (Ladd Research 20295). Reactions were initiated by the addition of formaldehyde and rates were recorded by monitoring NADH formation in a temperature controlled (25° C.) FluoroMax-2 Fluorimeter with excitation and emission wavelengths set at 340 and 460 nm, respectively. […] Normally, IC50 values were determined by fitting concentration-inhibition data to sigmoidal dose-response curves with two-floating parameters: IC50 and Hill coefficient. When tight binding situation was suspected, apparent Ki values were estimated by fitting dose-response data to Morrison's equation [Methods in Enzymology 63, 437-467, 1979].
`CS(=O)(=O)Nc1ccc(-c2coc3cc(OCc4nnc(-c5ccc(F)cc5)o4)ccc3c2=O)cc1` [PT-120, 7-{[5-(4-fluorophenyl)(1,3,4-oxadiazol-2-yl)]methoxy}-3-{4-[(methylsulfonyl)amino]-phenyl}chromen-4-one]: the IC50 is 276 nM.

On to `CS(=O)(=O)Nc1ccc(-c2coc3cc(OCc4cnc(-c5ccc(C(F)(F)F)cc5)s4)ccc3c2=O)cc1` [PT-83, 3-{4-[(methylsulfonyl)amino]phenyl}-7-({2-[4-(trifluoromethyl)phenyl](1,3-thiazol-5-yl)}methoxy)chromen-4-one], for which the IC50 is 25 nM.

Turning to `O=c1c(-c2ccc(O)cc2)coc2cc(OCc3coc(-c4ccc(F)cc4)n3)ccc12` [PT-16, 7-{[2-(4-fluorophenyl)(1,3-oxazol-4-yl)]methoxy}-3-(4-hydroxyphenyl)chromen-4-one], the IC50 was determined as 47 nM.

With `O=c1c(-c2ccc(O)cc2)coc2cc(OCc3nc(-c4cccc(C(F)(F)F)c4)no3)ccc12` [PT-115, 3-(4-hydroxyphenyl)-7-({3-[3-(trifluoromethyl)phenyl](1,2,4-oxadiazol-5-yl)}methoxy)chromen-4-one], the IC50 amounted to 38 nM.

For `Nc1cccc(-c2nnc(COc3ccc4c(=O)c(-c5ccc(O)cc5)coc4c3)o2)c1` [PT-121, 7-{[5-(3-aminophenyl)(1,3,4-oxadiazol-2-yl)]methoxy}-3-(4-hydroxyphenyl)chromen-4-one], the IC50 turned out to be 11 nM.

On to `O=c1c(-c2ccc(O)cc2)coc2cc(OCc3cnc(-c4ccc(C(F)(F)F)cc4)s3)ccc12` [PT-77, 3-(4-hydroxyphenyl)-7-({2-[4-(trifluoromethyl)phenyl](1,3-thiazol-5-yl)}methoxy)chromen-4-one], for which the half-maximal inhibitory concentration (IC50) stood at 122 nM.

For `O=c1c(-c2ccc(O)cc2)coc2cc(OCc3nc(-c4ccc(Cl)cc4)no3)ccc12` [PT-44, 3-(4-hydroxyphenyl)-7-({3-[4-chlorophenyl](1,2,4-oxadiazol-5-yl)}methoxy)chromen-4-one], the half-inhibitory concentration (IC50) was found to be 270 nM.

The assay is the same for the next values; noted with them: at 1 μM; read-out: hALDH2 inhibition (IC50 hALDH2 column).
`O=c1c(-c2ccc3[nH]ncc3c2)coc2cc(OCc3noc(-c4cc(F)cc(C(F)(F)F)c4)n3)ccc12` [PT-86, 3-(1H-indazol-5-yl)-7-({5-[5-fluoro-3-(trifluoromethyl)phenyl](1,2,4-oxadiazol-3-yl)}methoxy)chromen-4-one]: the inhibition at 1 µM worked out at 68%.
